Data published in patent publication US9999624B2, “Combination Alzheimer therapy using anti-N3pGlu Abeta antibodies + a BACE inhibitor” (Eli Lilly and Company, priority 2014, dated 2018).
Structures can show the parent of a compound that is named as a salt. Where two headings read alike, the source gives them in different places.

Columns and labels:
human BACE1(1-460):Fc = human BACE1(1-460):Fc (Homo sapiens (Human), UniProt P56817); experiment: BACE1 FRET Assay; type: biochemical; details: purified recombinant huBACE1:Fc, FRET substrate, pH 4.6; Mean ± SEM
young female PDAPP mice = experiment: In Vivo Inhibition of Beta-Secretase (brain Abeta 1-x reduction); design: species or system mouse; details: for CNS penetration: inferred from brain Abeta lowering after oral dose; for Abeta 1-x peptide levels reduced in brain cortex / Abeta 1-x peptide levels reduced in brain hippocampus: 3 hours after administration, compared to vehicle-treated mice
From the text: Several animal models, including mouse, guinea pig, dog, and monkey, may be used to screen for inhibition of beta-secretase activity in vivo following compound treatment Animals used in this invention can be wild type, transgenic, or gene knockout animals. For example, the PDAPP mouse model, prepared as described in Games et al., Nature 373, 523-527 (1995), and other non-transgenic or gene knockout animals are useful to analyze in vivo inhibition of Abeta and sAPPbeta production in the presence of inhibitory compounds. Generally, 2 to 12 month old PDAPP mice, gene knockout mice or non-transgenic animals are administered compound formulated in vehicles, such as corn oil, cyclodextran, phosphate buffers, […]®, or other suitable vehicles. One to twenty-four hours following the administration of compound, animals are sacrificed, and brains as well as cerebrospinal fluid and plasma are removed for analysis of Abetas, C99, and sAPP fragments. (See May, et al., Journal of Neuroscience, 31, 16507-16516 (2011)). For standard in vivo pharmacology studies, animals are dosed with various concentrations of compound and compared to a vehicle-treated control group dosed at the same time. For some time course studies, brain tissue, plasma, or cerebrospinal fluid is obtained from selected animals, beginning at time 0 to establish a baseline. Compound or appropriate vehicle is administered to other groups and sacrificed at various times after dosing. Brain tissue, plasma, or cerebrospinal fluid is obtained from selected animals and analyzed for the presence of APP cleavage products, including Abeta peptides, sAPPbeta, and other APP fragments, for example, by specific sandwich ELISA assays. At the end of the test period, animals are sacrificed and brain tissues, plasma, or cerebrospinal fluid are analyzed for the presence of Abeta peptides, C99, and sAPPbeta, as appropriate. Brain tissues of APP transgenic animals may also be analyzed for the amount of beta-amyloid plaques following compound treatment. “Abeta 1-x peptide” as used herein refers to the sum of Abeta species that begin with […]-terminus greater than residue 28. This detects the majority of Abeta species and is often called “total Abeta”.

[1] = tested on: primary cortical neurons from PDAPP transgenic embryonic mice; experiment: PDAPP Primary Neuronal Assay (Abeta ELISA); type: cell-based; details: Mus musculus, Primary cortical neuron, 24 h, Mean ± SEM

Sequence of human BACE1(1-460):Fc (P56817 22-460): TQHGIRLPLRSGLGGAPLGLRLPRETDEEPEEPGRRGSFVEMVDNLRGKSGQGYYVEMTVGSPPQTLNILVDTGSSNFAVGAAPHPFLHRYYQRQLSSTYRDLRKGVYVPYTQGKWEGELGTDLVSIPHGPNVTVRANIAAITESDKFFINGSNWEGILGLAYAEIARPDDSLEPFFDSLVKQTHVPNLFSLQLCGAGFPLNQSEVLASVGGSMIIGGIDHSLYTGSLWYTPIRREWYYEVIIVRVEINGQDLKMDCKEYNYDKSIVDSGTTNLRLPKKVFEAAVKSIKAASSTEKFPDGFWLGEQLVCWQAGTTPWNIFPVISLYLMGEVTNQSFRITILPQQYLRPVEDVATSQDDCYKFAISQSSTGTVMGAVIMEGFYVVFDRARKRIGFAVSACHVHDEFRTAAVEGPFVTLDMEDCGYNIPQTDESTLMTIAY

With `Cl.NC1=N[C@@]2(c3cccc(NC(=O)c4ccc(F)cn4)c3)CN(c3ncc(F)cn3)C[C@H]2CS1` [Example 1, N-{3-[(4aR,7aS)-2-Amino-6-(5-fluoropyrimidin-2-yl)-4a,5,6,7-tetrahydropyrrolo[3,4-d][1,3]thiazin-7a(4H)-yl]phenyl}-5-fluoropyridine-2-carboxamide hydrochloride] the IC50 (human BACE1(1-460):Fc) was 610 pM and the CNS penetration (young female PDAPP mice) was “demonstrate CNS penetration”.
With `COc1cnc(C(=O)Nc2ccc(F)c([C@]34CN(c5ncc(F)cn5)C[C@H]3CSC(N)=N4)c2)cn1.Cl` [Example 4, N-[3-[(4aR,7aS)-2-Amino-6-(5-fluoropyrimidin-2-yl)-4,4a,5,7-tetrahydropyrrolo[3,4-d][1,3]thiazin-7a-yl]-4-fluoro-phenyl]-5-methoxy-pyrazine-2-carboxamide hydrochloride] the “Abeta 1-x peptide levels reduced in brain cortex” value (young female PDAPP mice; 0.3 mg/kg oral dose) was “approximately 28%”, the “Abeta 1-x peptide levels reduced in brain hippocampus” value (young female PDAPP mice; 0.3 mg/kg oral dose) was “approximately 31%” and the “Abeta 1-x peptide levels reduced in brain cortex” value (young female PDAPP mice; 1 mg/kg oral dose) was ~42%. The “Abeta 1-x peptide levels reduced in brain hippocampus” value (young female PDAPP mice; 1 mg/kg oral dose) was ~39%, the “Abeta 1-x peptide levels reduced in brain cortex” value (young female PDAPP mice; 3 mg/kg oral dose) was ~64% and the “Abeta 1-x peptide levels reduced in brain hippocampus” value (young female PDAPP mice; 3 mg/kg oral dose) was ~61%. For the same molecule, the CNS penetration (young female PDAPP mice) was “demonstrate CNS penetration”.
Molecule `NC1=N[C@@]2(c3cccc(NC(=O)c4ncc(F)cc4F)c3)CN(c3ncc(F)cn3)C[C@H]2CS1` [Example 7, N-[3-[(4aR,7aS)-2-Amino-6-(5-fluoropyrimidin-2-yl)-4,4a,5,7-tetrahydropyrrolo[3,4-d][1,3]thiazin-7a-yl]phenyl]-3,5-difluoro-pyridine-2-carboxamide hydrochloride] has an IC50 (human BACE1(1-460):Fc) of 739 pM.
In the case of `N#Cc1ccc(C(=O)Nc2ccc(F)c([C@]34CN(c5ncc(F)cn5)C[C@H]3CSC(N)=N4)c2)nc1` [Example 8, N-[3-[(4aR,7aS)-2-Amino-6-(5-fluoropyrimidin-2-yl)-4,4a,5,7-tetrahydropyrrolo[3,4-d][1,3]thiazin-7a-yl]-4-fluoro-phenyl]-5-cyano-pyridine-2-carboxamide hydrochloride], the IC50 ([1]; Abeta 1-40 in conditioned media, read-out: PDAPP Neuron A-beta (1-40) ELISA IC50) is reported as 137 pM and the IC50 ([1]; Abeta 1-42 in conditioned media, read-out: PDAPP Neuron A-beta (1-42) ELISA IC50) is reported as 72.5 pM.
